Laboratory results as given in patent publication EP0539170A1, “Benzodiazepine derivatives and their use as antagonists of cholecystokinin and/or gastrin receptors” (priority 1991, dated 1993).

Target: T1, CCK Receptor (Pancreas) (Rattus norvegicus, UniProt P30551)
T1 construct: The whole pancreas was dissected free of fat tissue and was homogenized; from tissue; host or cells: rat pancreas membrane homogenate
T1 sequence (P30551 1-444): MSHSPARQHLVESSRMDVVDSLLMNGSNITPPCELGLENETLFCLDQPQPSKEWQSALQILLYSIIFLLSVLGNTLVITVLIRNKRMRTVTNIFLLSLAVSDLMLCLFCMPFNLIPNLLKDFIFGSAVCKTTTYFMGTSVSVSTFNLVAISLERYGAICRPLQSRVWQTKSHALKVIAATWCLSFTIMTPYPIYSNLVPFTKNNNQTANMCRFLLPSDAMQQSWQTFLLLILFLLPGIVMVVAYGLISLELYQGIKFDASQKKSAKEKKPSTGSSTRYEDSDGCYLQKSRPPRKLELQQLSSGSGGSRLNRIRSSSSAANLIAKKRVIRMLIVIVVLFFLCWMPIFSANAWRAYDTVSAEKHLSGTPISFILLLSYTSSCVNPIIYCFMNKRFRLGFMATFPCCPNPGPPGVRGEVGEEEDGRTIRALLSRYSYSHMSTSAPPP
Assay: CCK Receptor Binding (Pancreas), inhibition of specific 125I-CCK-8 binding
Parameters: species or system Sprague-Dawley rats
Details: rat whole pancreas membranes; 50 pM 125I-CCK-8; 25°C for 2 hours
Protocol: CCK-8 sulphated was radiolabelled with ¹²⁵I-Bolton Hunter reagent (2000 Ci/mmole). Receptor binding was performed according to Chang and Lotti (Proc. Natl. Acad. Sci. 83, 4923-4926, 1986) with minor modifications.
Male Sprague-Dawley rats (150-200g) were sacrificed by decapitation. The whole pancreas was dissected free of fat tissue and was homogenized in 25 volumes of ice-cold 10 mM N-2-hydroxyethyl-piperazine-N′-2-ethane sulphonic acid (HEPES) buffer with 0.1% soya bean trypsin inhibitor (pH 7.4 at 25°C) with a Kinematica Polytron. The homogenates were centrifuged at 47,800 g for 10 min. Pellets were resuspended in 10 volumes of binding assay buffer (20mM (HEPES)), 1mM ethylene glycol-bis-(β-aminoethylether-N,N′-tetraacetic acid) (EGTA), 5mM MgCl₂, 150 mM NaCl, bacitracin 0.25 mg/ml, soya bean trypsin inhibitor 0.1 mg/ml, and bovine serum albumin 2 mg/ml pH 6.5 at 25°C) using a Teflon (trademark) homogenizer, 15 strokes at 500 rpm. The homogenate was further diluted in binding assay buffer to give a final concentration of 0.5 mg original wet weight/1 ml buffer. […] All assays were run in duplicate. The reaction mixtures were incubated at 25°C for 2 hours and the reaction terminated by rapid filtration (Brandell 24 well cell harvester) over Whatman GF/C filters, washing 3 x 4 mls with ice-cold 100 Mm NaCl. The radioactivity on the filters was counted with a LKB gamma counter.
Drug displacement studies were performed with at least 10 concentrations of compounds of Formula I and the IC₅₀ values were determined by regression analysis IC₅₀ refers to the concentration of the compound required to inhibit 50% of specific binding of ¹²⁵I-CCK-8.

| Structure (SMILES) | IC50 [nM] |
| --- | --- |
| Cc1cccc(NC(=O)NC2N=C(N3CCCC3)c3ccccc3N(C)C2=O)c1 (racemic) [Example 2, N-[3(R,S)-2.3-Dihydro-1-methyl-2-oxo-5-(pyrrolidin-1-yl)-1H-1,4-benzodiazepin-3-yl] N′-[3-methylphenyl] urea] | 612 |
| Cc1cccc(NC(=O)NC2N=C(N3CCOCC3)c3ccccc3N(C)C2=O)c1 (racemic) [Example 3, N-[3(R,S)-2,3-Dihydro-1-methyl-5-(morpholin-4-yl)-2-oxo-1H-1,4-benzodiazepin-3-yl] N′-[3-methylphenyl] urea] | 505 |
| Cc1cccc(NC(=O)NC2N=C(N3CCN(C)CC3)c3ccccc3N(C)C2=O)c1 (racemic) [Example 4, N-[3(R,S)-2,3-Dihydro-1-methyl-5-(4-methylpiperazin-1-yl-2-oxo-1H-1,4-benzodiazepin-3-yl] N′-[3-methylphenyl]urea] | 4120 |
| CCc1cccc(NC(=O)NC2N=C(N3CCN(C)CC3)c3ccccc3N(C)C2=O)c1 (racemic) [Example 5, N-[3(R,S)-2,3-Dihydro-1-methyl-5-(4-methylpiperazin-1-yl)-2-oxo-1H-1,4-benzodiazepin-3-yl] N′-[3-ethylphenyl] urea] | 4320 |
| Cc1ccc(NC(=O)NC2N=C(N3CCN(C)CC3)c3ccccc3N(C)C2=O)cc1 (racemic) [Example 6, N-[3(R,S)-2,3-Dihydro-1-methyl-5-(4-methylpiperazin-1-yl-2-oxo-1H-1,4-benzodiazepin-3-yl] N′-[4-methylphenyl]urea] | > 3000 |
| CN1CCN(C2=NC(NC(=O)Nc3ccc(Cl)cc3)C(=O)N(C)c3ccccc32)CC1 (racemic) [Example 7, N-[3(R,S)-2,3-Dihydro-1-methyl-5-(4-methylpiperazin-1-yl-2-oxo-1H-1,4-benzodiazepin-3-yl] N′-[4-chlorophenyl]urea] | > 3000 |
| Cc1cccc(NC(=O)NC2N=C(N3CCNCC3)c3ccccc3N(C)C2=O)c1 (racemic) [Example 9, N-[3(R,S)-2,3-Dihydro-1-methyl-2-oxo-5-(piperazin-1-yl)-1H-1,4-benzodiazepin-3-yl]-N′-[3-methylphenyl] urea] | > 3000 |
| COc1cccc(NC(=O)NC2N=C(N3CCN(C)CC3)c3ccccc3N(C)C2=O)c1 (racemic) [Example 10, N-[3(R,S)-2,3-Dihydro-1-methyl-5-(4-methylpiperazin-1-yl)-2-oxo-1H-1,4-benzodiazepin-3-yl]-N#MIN#-[3-methoxyphenyl] urea] | 900 |
| CN1CCN(C2=NC(NC(=O)Nc3cccc(O)c3)C(=O)N(C)c3ccccc32)CC1 (racemic) [Example 11, N-[3(R,S)-2,3-Dihydro-1-methyl-5-(4-methylpiperazin-1-yl)-2-oxo-1H-1,4-benzodiazepin-3-yl]-N#MIN#-[3-hydroxyphenyl] urea] | 2300 |
| CCCN1C(=O)C(NC(=O)Nc2cccc(OC)c2)N=C(N2CCN(C)CC2)c2ccccc21 (racemic) [Example 12, N-[3(R,S)-2,3-Dihydro-5-(4-methylpiperazin-1-yl)-2-oxo-1-propyl-1H-1,4-benzodiazepin-3-yl]-N#MIN#-[3-methoxyphenyl] urea] | > 3000 |
| CN1CCN(C2=NC(NC(=O)Nc3cccc(-c4nnn(C)n4)c3)C(=O)N(C)c3ccccc32)CC1 (racemic) [Example 13, N-[3(R,S)-2,3-Dihydro-1-methyl-2-oxo-5-(4-methylpiperazin-1-yl)-1H-1,4-benzodiazepin-3-yl]-N′-[3-(2-methyltetrazol-5-yl)phenyl] urea] | > 3000 |
| CN1CCN(C2=NC(NC(=O)Nc3cccc(-c4nnnn4C)c3)C(=O)N(C)c3ccccc32)CC1 (racemic) [Example 14, N-[3(R,S)-2,3-Dihydro-1-methyl-2-oxo-5-(4-methylpiperazin-1-yl)-1H-1,4-benzodiazepin-3-yl)-N′-[3-(1-methyltetrazol-5-yl)phenyl] urea] | > 3000 |
| CN1CCN(C2=NC(NC(=O)Nc3cccc(C(=O)N(C)C)c3)C(=O)N(C)c3ccccc32)CC1 (racemic) [Example 15, N-[3(R,S)-2,3-Dihydro-1-methyl-2-oxo-5-(4-methylpiperazin-1-yl)-1H-1,4-benzodiazepin-3-yl]-N′-[3-(N,N-dimethylcarboxamido)phenyl] urea] | > 3000 |
| Cc1cccc(NC(=O)NC2N=C(N3CCCNCC3)c3ccccc3N(C)C2=O)c1 (racemic) [Example 16, N-[3(R,S)-2,3-Dihydro-5-(homopiperazin-1-yl)-1-methyl-2-oxo-1H-1,4-benzodiazepin-3-yl]-N′-[3-methylphenyl] urea] | > 3000 |
| Cc1cccc(NC(=O)NC2N=C(N3CCCN(C)CC3)c3ccccc3N(C)C2=O)c1 (racemic) [Example 17, N-[3(R,S)-2,3-Dihydro-1-methyl-5-(4-methylhomopiperazin-1-yl)-2-oxo-1H-1,4-benzodiazepin-3-yl]-N′-[3-methylphenyl] urea] | 2800 |
| CCNC(=O)c1cccc(NC(=O)NC2N=C(N3CCN(C)CC3)c3ccccc3N(C)C2=O)c1 (racemic) [Example 18, N-[3(R,S)-2,3-Dihydro-1-methyl-2-oxo-5-(4-methylpiperazin-1-yl)-1H-1,4-benzodiazepin-3-yl]-N′-[3-(N-ethylcarboxamido)phenyl] urea] | > 3000 |
| CCc1cccc(NC(=O)NC2N=C(N3CCCCC3)c3ccccc3N(C)C2=O)c1 (racemic) [Example 19, N-[3(R,S)-2,3-Dihydro-1-methyl-2-oxo-5-(piperidin-1-yl)-1H-1,4-benzodiazepin-3-yl]-N′-[3-ethylphenyl] urea] | 25 |
| Cc1cccc(NC(=O)NC2N=C(N3CCCCCC3)c3ccccc3N(C)C2=O)c1 (racemic) [Example 20, N-[3(R,S)-2,3-Dihydro-5-(homopiperidin-1-yl)-1-methyl-2-oxo-1H-1,4-benzodiazepin-3-yl]-N′-[3-methylphenyl] urea] | 10 |
| CCCN1C(=O)C(NC(=O)Nc2cccc(CC)c2)N=C(N2CCN(C)CC2)c2ccccc21 (racemic) [Example 21, N-[3(R,S)-2,3-Dihydro-5-(4-methylpiperazin-1-yl)-2-oxo-1-propyl-1H-1,4-benzodiazepin-3-yl]-N#MIN#-[3-ethylphenyl] urea] | 2400 |
| Cc1cccc(NC(=O)NC2N=C(N3CCN(C)CC3)c3ccccc3N(CC(C)C)C2=O)c1 (racemic) [Example 22, N-[3(R,S)-2,3-Dihydro-5-(4-methylpiperazin-1-yl)-1-(2-methylpropyl)-2-oxo-1H-1,4-benzodiazepin-3-yl]-N′-[3-methylphenyl] urea] | 1800 |
| CCc1cccc(NC(=O)NC2N=C(N3CCN(C)CC3)c3ccccc3N(CC(C)C)C2=O)c1 (racemic) [Example 23, N-[3(R,S)-2,3-Dihydro-5-(4-methylpiperazin-1-yl)-1-(2-methylpropyl)-2-oxo-1H-1,4-benzodiazepin-3-yl]-N′-[3-ethylphenyl] urea] | 2400 |
| CN1CCN(C2=NC(NC(=O)Nc3cccc(C(F)(F)F)c3)C(=O)N(C)c3ccccc32)CC1 (racemic) [Example 30, N-[3(R,S)-2,3-Dihydro-1-methyl-2-oxo-5-(4-methylpiperazin-1-yl)-1H-1,4-benzodiazepin-3-yl]-N′-[3-trifluoromethylphenyl] urea] | 2700 |
| CN1CCN(C2=NC(NC(=O)Nc3ccccc3)C(=O)N(C)c3ccccc32)CC1 (racemic) [Example 31, N-[3(R,S)-2,3-Dihydro-1-methyl-2-oxo-5-(4-methylpiperazin-1-yl)-1H-1,4-benzodiazepin-3-yl]-N′-phenyl urea] | 3450 |
| CCCN1C(=O)C(NC(=O)Nc2ccc3c(c2)CCC3)N=C(N2CCN(C)CC2)c2ccccc21 (racemic) [Example 33, N-[3(R,S)-2,3-Dihydro-5-(4-methylpiperazin-1-yl)-2-oxo-1-propyl-1H-1,4-benzodiazepin-3-yl]-N′-[5-indanyl] urea] | > 3000 |
| CCCN1C(=O)C(NC(=O)Nc2cccc(C)c2)N=C(N2CCNCC2)c2ccccc21 (racemic) [Example 36, N-[3(R,S)-2,3-Dihydro-2-oxo-5-(piperazin-1-yl)-1-propyl-1H-1,4-benzodiazepin-3-yl]-N′-[3-methylphenyl] urea] | > 3000 |
| CCCN1C(=O)C(NC(=O)Nc2cccc(C)c2)N=C(N2CCN(CC)CC2)c2ccccc21 (racemic) [Example 37, N-[3(R,S)-2,3-Dihydro-5-(4-ethylpiperazin-1-yl)-2-oxo-1-propyl-1H-1,4-benzodiazepin-3-yl]-N#MIN#-[3-methylphenyl] urea] | 3730 |
